Results from patent publication US20250326741A1, “GLUCOSE-DEPENDENT INSULINOTROPIC POLYPEPTIDE RECEPTOR ANTAGONISTS AND USES THEREOF” (Pfizer Inc., priority 2024, published 2025).

Molecular target: T1, human Glucose-dependent Insulinotropic Polypeptide Receptor (hGIPR) (Homo sapiens, UniProt P48546)
T1 sequence (P48546 22-466): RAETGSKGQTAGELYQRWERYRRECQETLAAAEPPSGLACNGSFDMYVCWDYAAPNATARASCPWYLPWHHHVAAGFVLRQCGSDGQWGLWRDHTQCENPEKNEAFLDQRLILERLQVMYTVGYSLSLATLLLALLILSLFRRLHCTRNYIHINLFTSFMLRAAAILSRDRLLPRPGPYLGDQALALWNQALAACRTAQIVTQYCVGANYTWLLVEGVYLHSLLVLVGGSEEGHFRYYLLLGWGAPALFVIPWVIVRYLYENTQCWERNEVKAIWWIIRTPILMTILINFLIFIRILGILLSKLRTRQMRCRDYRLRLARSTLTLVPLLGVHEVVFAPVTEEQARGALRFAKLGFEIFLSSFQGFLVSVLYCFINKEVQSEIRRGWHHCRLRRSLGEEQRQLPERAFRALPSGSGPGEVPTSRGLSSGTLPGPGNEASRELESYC
Assay: Functional in vitro GIPR antagonist potency assay (intracellular cAMP, HTRF, hGIP stimulation at EC80)
Type: cell-based
Details: geometric mean; CHO-K1 cells stably expressing human GIPR, cAMP after hGIP stimulation at EC80
Experimental: Example AA. Functional In Vitro GIPR Antagonist Potency Assay
The functional in vitro antagonist potency for test compounds was determined by monitoring intracellular cyclic adenosine monophosphate (cAMP) levels in Chinese hamster ovary (CHO)—K1 cells stably expressing the human Glucose-dependent Insulinotropic Polypeptide Receptor (hGIPR). Following agonist activation, hGIPR associates with the G-protein complex causing the Gas subunit to exchange bound guanosine diphosphate (GDP) for guanosine triphosphate (GTP), followed by dissociation of the Gas-GTP complex. The activated Gas subunit can couple to downstream effectors to regulate the levels of second messengers or cAMP within the cell. Thereby, determination of intracellular cAMP levels allows for pharmacological characterization. Intracellular cAMP levels are quantitated using a homogenous assay utilizing the Homogeneous Time Resolved Fluorescence (HTRF) technology from Perkin Elmer. The method is a competitive immunoassay between native cAMP produced by the cells and cAMP labelled with the acceptor dye, d2. The two entities compete for binding to a monoclonal anti-cAMP antibody labeled with cryptate. The specific signal is inversely proportional to the concentration of cAMP in the cells.
Test compounds were solubilized to a concentration of 30 mM in 100% dimethyl sulfoxide (DMSO). An 11-point dilution series using 1 in 3.162-fold serial dilutions was created in 100% DMSO with a top concentration of 8 mM. The serially diluted compound was spotted with an Echo Acoustic liquid handler (Beckman Coulter) into a 384-well assay plate (Corning, Cat No. 3824) at 50 nL/well with duplicate points at each concentration, at a 200× final assay concentration (FAC). The final compound concentration range in the assay was 40 μM to […], with a final DMSO concentration of 0.5%.
Frozen assay-ready vials (at 1×10^7 cells/vial) of CHO-K1 cells stably expressing the Gs-coupled human GIPR receptor (Eurofins, DiscoverX, Cat No. 95-0146C2) were thawed, counted, and resuspended in assay buffer consisting of Hank's Balanced Salt Solution (HBSS, Lonza Cat No. 10-527) containing 20 mM (4-(2-hydroxyethyl)-1-piperazineethanesulfonic acid (HEPES, Lonza, Cat No. 17-737E), 0.1% bovine serum albumin (BSA, Sigma, Cat No. A7979), and 200 μM 3-isobutyl-1-methylxanthine (IBMX, Sigma, Cat No. 15879) at a density of 4×10^5 cells/mL. Cells were added to assay plate (5 μL/well of 4×10^5 cells/mL stock for 2,000 cells/well final) containing 50 nL of 200×FAC test compound, and incubated at 37° C. (95% O2: 5% CO2) for 2 hours, with micro-clime lids (Labcyte, Cat No. LLS-0310). Following the 2-hour cell and compound incubation, a stimulation mix comprised of hGIPR agonist human glucose-dependent insulinotropic polypeptide (hGIP, full length, Sigma Cat No. G2269) in assay buffer/0.1% DMSO was added to the assay plate (5 μL/well) at an estimated EC80 FAC (based on previous hGIP agonist curves) and incubated for another 30 minutes with micro-clime lids at 37° C. (95% O2: 5% CO2), after which intracellular cAMP levels were quantified as per Perkin Elmer's protocol (5 μL of d2 and then 5 μL cryptate, incubated for 1 hour at room temperature). Emission spectra of samples were measured on a Pherastar plate reader (BMG Labtech Inc) using a HTRF protocol (excitation, 320 nm; emission, 665 nm/620 nm).
(95% O2: 5% CO2), with a micro-clime lid. Following the 2-hour cell and DMSO incubation, a hGIP concentration response curve at 2×FAC (12-point curve using 1 in 3 serial dilutions, with triplicate points at each concentration, 100 nM final top concentration) in assay buffer/1% DMSO was added (5 μL/well) and incubated for a further 30 minutes with a micro-clime lid at 37° C. (95% O2: 5% CO2), after which intracellular cAMP levels were quantified and samples measured as described previously. Experiments passed quality control if the agonist concentration used for stimulation fell between the on-the-day EC50-EC90. […]

SMILES	IC50 [µM]
Cc1cc(-n2ccc(NC(=O)[C@H]3CCCN3C(=O)Nc3ccc(C(C)C)c(F)c3)n2)ccc1C(N)=O [Example 16, (2R)—N^2-[1-(4-Carbamoyl-3-methylphenyl)-1H-pyrazol-3-yl]-N^1-[3-fluoro-4-(propan-2-yl)phenyl]pyrrolidine-1,2-dicarboxamide]	0.11
Cc1c(C(=O)O)ccc(-n2ccc(NC(=O)[C@H]3CCCN3C(=O)Nc3ccc(OC(F)(F)F)cc3)n2)c1F [Example 62, 3-fluoro-2-methyl-4-{3-[(1-{[4-(trifluoromethoxy)phenyl]carbamoyl}-D-prolyl)amino]-1H-pyrazol-1-yl}benzoic acid]	0.0076
CC(C)c1ccc(NC(=O)N2CCC[C@@H]2C(=O)Nc2ccn(-c3ccc(C(=O)O)cc3F)n2)cc1F [Example 34, 3-fluoro-4-{3-[(1-{[3-fluoro-4-(propan-2-yl)phenyl]carbamoyl}-D-prolyl)amino]-1H-pyrazol-1-yl}benzoic acid]	0.015
O=C(O)c1ccc(-n2ccc(NC(=O)[C@H]3CCCN3C(=O)Nc3ccc(C(F)(F)F)cc3)n2)cc1 [Example 23, 4-{3-[(1-{[4-(trifluoromethyl)phenyl]carbamoyl}-D-prolyl)amino]-1H-pyrazol-1-yl}benzoic acid]	0.043
Cc1cc(-n2ccc(NC(=O)[C@H]3CCCN3C(=O)Nc3ccc(C4CCCC4)cc3)n2)ccc1C(=O)O [Example 45, 4-[3-({1-[(4-cyclopentylphenyl)carbamoyl]-D-prolyl}amino)-1H-pyrazol-1-yl]-2-methylbenzoic acid]	0.0084
Cc1cc(-n2ccc(NC(=O)[C@H]3CCCN3C(=O)Nc3ccc(Cl)c(C(F)(F)F)c3)n2)ccc1C(=O)O [Example 46, 4-{3-[(1-{[4-chloro-3-(trifluoromethyl)phenyl]carbamoyl}-D-prolyl)amino]-1H-pyrazol-1-yl}-2-methylbenzoic acid]	0.075
O=C(O)c1ccc(-n2ccc(NC(=O)[C@H]3CCCN3C(=O)NCc3ccc(OC(F)(F)F)cc3)n2)cc1 [Example 33, 4-(3-{[1-{{[4-(trifluoromethoxy)phenyl]methyl}carbamoyl)-D-prolyl]amino}-1H-pyrazol-1-yl)benzoic acid]	0.09
Cc1cc(-n2ccc(NC(=O)[C@H]3CCCN3C(=O)Nc3ccc(Cl)c(Cl)c3)n2)ccc1C(=O)O [Example 37, 4-[3-({1-[(3,4-dichlorophenyl)carbamoyl]-D-prolyl}amino)-1H-pyrazol-1-yl]-2-methylbenzoic acid]	0.094
Cc1cc(-n2ccc(NC(=O)[C@H]3CCCN3C(=O)Nc3ccc(C(C)C)cc3)n2)c(F)cc1C(=O)O [Example 50, 5-fluoro-2-methyl-4-{3-[(1-{[4-(propan-2-yl)phenyl]carbamoyl}-D-prolyl)amino]-1H-pyrazol-1-yl}benzoic acid]	0.021
Cc1cc(-n2ccc(NC(=O)[C@H]3CCCN3C(=O)Nc3ccc(C4CC4)c(C)c3)n2)ccc1C(=O)O [Example 39, 4-[3-({1-[(4-cyclopropyl-3-methylphenyl)carbamoyl]-D-prolyl}amino)-1H-pyrazol-1-yl]-2-methylbenzoic acid]	0.027
Cc1c(C(=O)O)ccc(-n2ccc(NC(=O)[C@H]3CCCN3C(=O)COc3ccc(C(F)(F)F)cc3)n2)c1F [Example 64, 3-fluoro-2-methyl-4-{3-[(1-{[4-(trifluoromethyl)phenoxy]acetyl}-D-prolyl)amino]-1H-pyrazol-1-yl}benzoic acid]	0.028
CC(C)c1ccc(NC(=O)N2CCC[C@@H]2C(=O)Nc2ccn(-c3ccc(CC(=O)O)cc3)n2)cc1 [Example 2, (4-{3-[(1-{[4-(Propan-2-yl)phenyl]carbamoyl}-D-prolyl)amino]-1H-pyrazol-1-yl}phenyl)acetic Acid]	0.025
Cc1cc(NC(=O)N2CCC[C@@H]2C(=O)Nc2ccn(-c3ccc(C(=O)O)cn3)n2)ccc1C(C)C [Example 28, 6-{3-[(1-{[3-methyl-4-(propan-2-yl)phenyl]carbamoyl}-D-prolyl)amino]-1H-pyrazol-1-yl}pyridine-3-carboxylic acid]	0.029
Cc1cc(-n2ccc(NC(=O)[C@H]3CCCN3C(=O)Nc3ccc(C(F)(F)F)c(Cl)c3)n2)ccc1C(=O)O [Example 52, 4-{3-[(1-{[3-chloro-4-(trifluoromethyl)phenyl]carbamoyl}-D-prolyl)amino]-1H-pyrazol-1-yl}-2-methylbenzoic acid]	0.013
Cc1cc(-n2ccc(NC(=O)[C@H]3CCCN3C(=O)Nc3ccc(C4CC4)c(C(F)(F)F)c3)n2)ccc1C(=O)O [Example 53, 4-{3-[(1-{[4-cyclopropyl-3-(trifluoromethyl)phenyl]carbamoyl}-D-prolyl)amino]-1H-pyrazol-1-yl}-2-methylbenzoic acid]	0.013
Cc1cc(-n2ccc(NC(=O)[C@H]3CCCN3C(=O)Nc3ccc(C(C)C)cc3)n2)ccc1C(=O)O [Example 29, 2-methyl-4-{3-[(1-{[4-(propan-2-yl)phenyl]carbamoyl}-D-prolyl)amino]-1H-pyrazol-1-yl}benzoic acid]	0.013
Cc1cc(-n2ccc(NC(=O)[C@H]3CCCN3C(=O)NCc3ccc(OC(F)(F)F)cc3)n2)ccc1C(=O)O [Example 8, 2-Methyl-4-(3-{[1-({[4-(trifluoromethoxy)phenyl]methyl}carbamoyl)-D-prolyl]amino}-1H-pyrazol-1-yl)benzoic Acid]	0.061
Cc1cc(NC(=O)N2CCC[C@@H]2C(=O)Nc2ccn(-c3cc(F)c(O)c(F)c3)n2)ccc1C(C)C [Example 55]	0.0038
Cc1cc(NC(=O)N2CCC[C@@H]2C(=O)Nc2ccn(-c3ccc(C(=O)O)cc3)n2)ncc1C(C)C [Example 30, 4-{3-[(1-{[4-methyl-5-(propan-2-yl)pyridin-2-yl]carbamoyl}-D-prolyl)amino]-1H-pyrazol-1-yl}benzoic acid]	0.25
Cc1c(C(=O)O)ccc(-n2ccc(NC(=O)[C@H]3CCCN3C(=O)Nc3ccc(C(F)(F)F)cc3)n2)c1F [Example 66, 3-fluoro-2-methyl-4-{3-[(1-{[4-(trifluoromethyl)phenyl]carbamoyl}-D-prolyl)amino]-1H-pyrazol-1-yl}benzoic acid]	0.054
CC(C)c1ccc(NC(=O)N2CCC[C@@H]2C(=O)Nc2ccn(-c3ccc(C(=O)O)cc3F)n2)cc1 [Example 24, 3-fluoro-4-{3-[(1-{[4-(propan-2-yl)phenyl]carbamoyl}-D-prolyl)amino]-1H-pyrazol-1-yl}benzoic acid]	0.015
O=C(O)c1ccc(-n2ccc(NC(=O)[C@H]3CCCN3C(=O)Nc3ccc(C(F)(F)F)cc3)n2)nc1 [Example 27, 6-{3-[(1-{[4-(trifluoromethyl)phenyl]carbamoyl}-D-prolyl)amino]-1H-pyrazol-1-yl}pyridine-3-carboxylic acid]	0.074
